{"source": "patent US9157904B2", "about": "“Wnt antagonists and methods of treatment and screening” (OncoMed Pharmaceuticals, Inc., priority 2010, dated 2015)", "key": {"PN13 tumors": {"system": "PN13 tumors", "experiment": "Alcian blue and Ki67 staining of treated PN13 tumors", "type": "in vivo, NOD/SCID mice", "settings": "FZD8-Fc 15 mg/kg i.p. twice weekly, 19 days, vs control antibody", "protocol": "The cell differentiation capability of FZD8-Fc was also evaluated in the OMP-PN13 pancreas tumor xenograft model. Dissociated OMP-PN13 cells (50,000 per animal) were injected subcutaneously into 6-8 week old male NOD/SCID mice. Tumor growth was monitored weekly and tumor measurements were initiated once tumors were palpable. On day 40 mice with average tumor volume of 114 mm^3 were randomized into 4 groups of 10 animals each. Animals were injected with either control antibody or FZD8-Fc (15 mg/kg). Administration of the FZD8-Fc and control antibody was performed via injection into the intraperitoneal cavity, twice weekly. After 19 days of treatment, the tumors were excised and immunohistochemistry analysis was performed using standard techniques. Briefly, tumors were fixed in formalin, embedded in paraffin, and tumor sections of 4 μm thickness were cut. After deparaffinization and hydration, the tumor sections were subjected to an antigen retrieval process in Tris buffer (pH 9.5). Sections were incubated with hydrogen peroxide (Sigma-Aldrich, St Louis, Mo.) for 10 minutes to block endogenous peroxidases. Anti-Ki67 antibody (Dako, clone MIB-1) at 1:200 dilution in blocking buffer (3% NHS, 1% BSA, 0.1% Tween-20, in PBS) was added to each section and incubated for 1 hour. Slides were rinsed 3 times in PBST for 5 minutes each. […]"}, "[1]": {"experiment": "Pharmacokinetics of FZD8-Fc in rat", "type": "in vivo, Sprague Dawley rats", "settings": "tail vein, plasma", "description": "The pharmacokinetics of FZD8-Fc (54F03) were assessed in rats in a two week pharmacokinetics (PK) study using doses of 2 mg/kg and 10 mg/kg. Sprague Dawley rats, five males in each group, were dosed with FZD8-Fc via the tail vein at 2 mg/kg or 10 mg/kg and followed for two weeks with samples collected at the time points 1, 24, 48, 72, 96, 168, 240, and 336 hours. At each time point, 1 ml of blood was collected into potassium-EDTA tubes and centrifuged. The plasma supernatants were collected and frozen until the samples were analyzed.\nThe level of FZD8-Fc fusion protein present in the plasma at each time point was quantified and the half-life of FZD8-Fc was calculated for the two doses."}, "C28 colon tumor [2]": {"system": "C28 colon tumor", "experiment": "C28 colon tumor xenograft, FZD8-Fc variants (Example 14)", "type": "in vivo, NOD/SCID mice", "settings": "C28 established tumors; 15 mg/kg i.p. twice a week", "protocol": "(§1) Dissociated C28 colon tumor cells (10,000 cells) were injected subcutaneously into 6-8 week old male NOD/SCID mice. Tumors were allowed to grow for 28 days until they reached an average volume of 145 mm^3. The mice were randomized (n=9 per group) and treated with FZD8-Fc variants or a control antibody at a dose of 15 mg/kg twice a week. Administration of the FZD8-Fc variants and control antibody was performed via injection into the intraperitoneal cavity. Tumor growth was monitored and tumor volumes were measured with electronic calipers at the indicated time points. Data are expressed as mean±S.E.M."}, "[3]": {"experiment": "Pharmacokinetics of FZD8-Fc variants in rats", "settings": "rat, tail vein, 10 mg/kg, plasma", "description": "The pharmacokinetics of several FZD8-Fc variants were assessed in rats in a two week pharmacokinetics (PK) study. […] Sprague Dawley rats, five males in each group, were dosed with FZD8-Fc variants via the tail vein at 10 mg/kg and followed for two weeks with samples collected at time points 1, 24, 48, 72, 96, 168, 240, and 336 hours. At each time point, 1 ml of blood was collected into potassium-EDTA tubes and centrifuged. The plasma supernatants were collected and frozen until the samples were analyzed.\nThe level of FZD8-Fc variant protein present in the plasma at each time point was quantified and the half-life of each FZD8-Fc variant was calculated."}, "PN4 tumors": {"system": "PN4 tumors", "experiment": "Flow cytometry for ESA and CD44 on treated PN4 tumors", "type": "in vivo, NOD/SCID mice", "settings": "PN4 tumors harvested day 85, 5 tumors pooled; control antibody 12.7%", "protocol": "Control and treated tumors from the OMP-PN4 xenograft study described above were harvested at the end of the study (day 85). The tumors were processed and dissociated into single cells. Single cell suspensions derived from 5 tumors of each treatment group were pooled, and the pooled samples were then incubated on ice for 30 min with antibodies that bind mouse cells selectively (α-mouse CD45-biotin 1:200 dilution and rat α-mouse H2Kd-biotin 1:100 dilution, BioLegend, San Diego, Calif.), followed by addition of streptavidin-labeled magnetic beads (Invitrogen, Carlsbad, Calif.). Mouse cells were removed with the aid of a magnet. For analysis of human cell surface markers, the single tumor cell suspension was stained with anti-ESA (Biomeda, Hayward, Calif.) and anti-CD44 (BD Biosciences, San Jose, Calif.) antibodies which were directly conjugated to fluorochromes. Dead cells were excluded by using the viability dye DAPI. Flow cytometry was performed using a FACS Aria instrument (Becton Dickinson, Franklin Lakes, N.J.). Side scatter and forward scatter profiles were used to eliminate cell clumps."}, "[4]": {"system": "canonical Wnt signaling pathway", "experiment": "Luciferase reporter assay in STF293 cells with Wnt3a-conditioned medium", "type": "cell-based", "settings": "blocking of Wnt3a-induced luciferase in STF293 cells; relative to reference standard set at 100%", "protocol": "The ability of the FZD8-Fc variants to block or inhibit activation of the Wnt signaling pathway was determined in vitro using a luciferase reporter assay. STF293 cells were cultured in DMEM supplemented with antibiotics and 10% FCS. The STF293 cells are stably transfected with a reporter vector containing seven copies of the TCF transcriptional response element linked to a promoter upstream of a firefly luciferase reporter gene. This construct measures the activity of the canonical Wnt signaling pathway. The cells were added to cultures plates at 10,000 cells per well. After an overnight incubation the FZD8-Fc variants or control mouse JAG1-Fc were added in combination with Wnt3a-conditioned medium. The FZD8-Fc variants and JAG1-Fc were used at concentrations of 20, 4, 0.8, 0.16, 0.03, 0.006, 0.0012, and 0.0003 ug/ml. The cells were incubated in 25% Wnt3A-conditioned medium that had been prepared from L cells that stably express Wnt3a. After overnight incubation (approximately 18 hrs), luciferase levels were measured using a Steady-Glo® luciferase assay kit (Promega, Madison, Wis.).\nThe blocking activity of the FZD8-Fc variants was determined and is presented in Table 3 as relative activity as compared to the same reference standard run in each assay which was set at 100%."}, "C28 colon tumor [5]": {"system": "C28 colon tumor", "experiment": "C28 colon tumor xenograft, FZD8-Fc variants (Example 17)", "type": "in vivo, NOD/SCID mice", "settings": "C28 established tumors; 15 mg/kg i.p. twice a week; after three weeks of treatment", "protocol": "as §1, with “grow for 56 days until” for “grow for 28 days until”, “volume of 175 mm^3. The” for “volume of 145 mm^3. The”, “were randomized (n=10 per group)” for “were randomized (n=9 per group)”, “with FZD8-Fc constructs 54F03, 54F23, 54F26, or a” for “with FZD8-Fc variants or a”"}}, "note": "“And” between values parts separate entries of the source, which are not always exact repeats. Identical values can stand only once."}
{"substance": "54F03: Fri domain of human FZD8 fused to human IgG1 Fc with GRA linker; SEQ ID NO:1", "values": [{"measurement": "cells expressing sialomucins (alcian blue)", "setting": "PN13 tumors", "value": "increase in cells expressing sialomucins"}, {"measurement": "proliferating cells denoted by expression of Ki67", "setting": "PN13 tumors", "value": "decrease in proliferating cells"}, {"measurement": "half-life", "setting": "[1]; 2 mg/kg", "value": 163, "unit": "h"}, {"measurement": "half-life", "setting": "[1]; 10 mg/kg", "value": 157, "unit": "h"}, {"measurement": "reduction in tumor growth as compared to control antibody", "setting": "C28 colon tumor [2]", "value": "approximately 56%"}, {"measurement": "t1/2 in hours", "setting": "[3]", "value": 162, "unit": "h"}, {"measurement": "bulk tumor population expressing both ESA and CD44 at high levels (double positive population)", "setting": "PN4 tumors", "value": 1.9, "unit": "%"}, {"measurement": "% Relative Activity", "setting": "[4]", "value": "107% and 143%"}, {"measurement": "reduction of tumor growth as compared to control antibody", "setting": "C28 colon tumor [5]", "value": 48, "unit": "%"}]}
